Test results: patent US10294202B2, “Pyrrolidinones as herbicides” (FMC Corporation, priority 2013, dated 2019)

How the values were obtained:
ragweed = assay: Test A pre-/postemergence herbicide test; format: in vivo, Ambrosia elatior
Summary of the method: (§1)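 Both application timings used compounds in a non-phytotoxic solvent plus surfactant. Pre-emergence: soil sprayed directly after seeding into loam/sand. Post-emergence: foliage of 2–10 cm seedlings (1–2 leaves) sprayed. Injury rated ~10 days later, 0–100.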

giant foxtail = assay: Test A pre-/postemergence herbicide test; format: in vivo, Setaria faberii
Summary of the method: as §1

wheat = assay: Test A pre-/postemergence herbicide test; format: in vivo, Triticum aestivum; settings: Postemergence
Summary of the method: as §1

sedge, umbrella = assay: Test B flooded paddy test; format: in vivo, Cyperus difformis; settings: Flood, scale of 0 to 100 where 0 is no effect and 100 is complete control
Summary of the method: (§2)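 Scored visually 0–100 (0 no effect, 100 complete control) versus controls after 13 to 15 greenhouse days. Treatment: compound added to paddy water kept 3 cm above soil, on 2-leaf-stage plants.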

kochia = assay: Test A pre-/postemergence herbicide test; format: in vivo, Kochia scoparia
Summary of the method: as §1

blackgrass = assay: Test A postemergence herbicide test; format: in vivo, Alopecurus myosuroides
Summary of the method: (§3)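 Blackgrass and galium grown in pots of loam soil–sand blend, treated postemergence at 2–10 cm height, one- to two-leaf stage. Plants kept in greenhouse ~10 days, then visually rated for injury against untreated controls on a 0–100 scale (0 no effect, 100 complete control).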

corn = assay: Test A pre-/postemergence herbicide test; format: in vivo, Zea mays; settings: Postemergence
Summary of the method: as §1

galium = assay: Test A postemergence herbicide test; format: in vivo, Galium aparine
Summary of the method: as §3

barnyardgrass [1] = assay: Test B flooded paddy test; format: in vivo, Echinochloa crus-galli; settings: Flood, scale of 0 to 100 where 0 is no effect and 100 is complete control
Summary of the method: as §2

ryegrass, Italian = assay: Test A pre-/postemergence herbicide test; format: in vivo, Lolium multiflorum
Summary of the method: as §1

barnyardgrass [2] = assay: Test A pre-/postemergence herbicide test; format: in vivo, Echinochloa crus-galli
Summary of the method: as §1

ducksalad = assay: Test B flooded paddy test; format: in vivo, Heteranthera limosa; settings: Flood, scale of 0 to 100 where 0 is no effect and 100 is complete control
Summary of the method: as §2

rice = assay: Test B flooded paddy test; format: in vivo, Oryza sativa; settings: Flood, scale of 0 to 100 where 0 is no effect and 100 is complete control
Summary of the method: as §2

pigweed = assay: Test A pre-/postemergence herbicide test; format: in vivo, Amaranthus retroflexus
Summary of the method: as §1

[3] = Postemergence, 125 g ai/ha, visual rating on 0 to 100 scale (0 no effect, 100 complete control), approx. 10 days
[4] = Postemergence, 500 g ai/ha, 0 to 100 scale (0 no effect, 100 complete control)
[5] = Preemergence, 125 g ai/ha, 0 to 100 scale where 0 is no effect and 100 is complete control
[6] = preemergence, 500 g ai/ha, 0 to 100 scale, 0 is no effect and 100 is complete control
[7] = 125 g ai/ha, visual rating on 0 to 100 scale (0 no effect, 100 complete control), approx. 10 days
[8] = 500 g ai/ha, 0 to 100 scale (0 no effect, 100 complete control)
[9] = 125 g ai/ha, visual rating, 0 to 100 scale, 0 no effect, 100 complete control, approximately 10 days, preemergence
[10] = Postemergence, 125 g ai/ha, 0 to 100 scale, 0 is no effect, 100 is complete control
[11] = 125 g ai/ha, 0 to 100 scale, 0 is no effect, 100 is complete control

What does the source list for `CSc1cccc(C2CNC(=O)C2C(=O)Nc2ccc(F)cc2F)c1` (stereo not shown) [Compound 288]?
Plant response rating, Ragweed (ragweed; [3]): 0; Plant response rating, Ragweed (ragweed; [4]): 0; Plant response rating, Ragweed (ragweed; [5]): 0; Plant response rating, Ragweed (ragweed; [6]): 0; Plant response rating, Foxtail, Giant (giant foxtail; [3]): 20; Plant response rating, Foxtail, Giant (giant foxtail; [4]): 30; Plant response rating, Foxtail, Giant (giant foxtail; [5]): 30; Plant response rating, Foxtail, Giant (giant foxtail; [6]): 90; Plant response rating, Wheat (wheat; [7]): 0; Plant response rating, Wheat (wheat; [8]): 0; Plant response rating, Sedge, Umbrella (sedge, umbrella; 500 g ai/ha): 0; Plant response rating, Kochia (kochia; [3]): 0; Plant response rating, Kochia (kochia; [4]): 20; Plant response rating, Kochia (kochia; [5]): 30; Plant response rating, Kochia (kochia; [6]): 50; Plant response rating, Blackgrass (blackgrass; [7]): 0; Plant response rating, Blackgrass (blackgrass; [8]): 0; Plant response rating, Corn (corn; [7]): 0; Plant response rating, Corn (corn; [8]): 0; Plant response rating, Galium (galium; [7]): 0; Plant response rating, Galium (galium; [8]): 0; Plant response rating, Barnyardgrass (barnyardgrass [1]; 500 g ai/ha): 20; Plant response rating, Ryegrass, Italian (ryegrass, Italian; [3]): 0; Plant response rating, Ryegrass, Italian (ryegrass, Italian; [4]): 0; Plant response rating, Ryegrass, Italian (ryegrass, Italian; [5]): 0; Ryegrass, Italian plant response rating (ryegrass, Italian; Preemergence, 500 g ai/ha, visual rating on 0 to 100 scale (0 no effect, 100 complete control)): 20; Plant response rating, Barnyardgrass (barnyardgrass [2]; [3]): 20; Plant response rating, Barnyardgrass (barnyardgrass [2]; [4]): 80; Plant response rating, Barnyardgrass (barnyardgrass [2]; [5]): 30; Plant response rating, Barnyardgrass (barnyardgrass [2]; [6]): 70; Plant response rating, Ducksalad (ducksalad; 500 g ai/ha): 65; Plant response rating, Rice (rice; 500 g ai/ha): 0; Plant response rating, Pigweed (pigweed; [3]): 0; Plant response rating, Pigweed (pigweed; [4]): 0; Plant response rating, Pigweed (pigweed; [5]): 0; Plant response rating, Pigweed (pigweed; [6]): 0

For `O=C1NCC(c2ccc(-c3ccccc3F)cc2)C1C(=O)Nc1cccc(F)c1F` (stereo not shown) [Compound 235], which “Plant response rating, Ragweed” value (ragweed; [9]) is on record?
Its value is 0.

What about the “Plant response rating, Ragweed” value (ragweed; [10]) of the same compound?
Its value is 0.

What about the “Ragweed plant response rating (0 to 100 scale, 0 is no effect, 100 is complete control)” value (ragweed; Postemergence, 500 g ai/ha) of the same compound?
Its value is 0.

What about the “Plant response rating, Ragweed” value (ragweed; [6]) of the same compound?
Its value is 0.

What about the “Plant response rating, Foxtail, Giant” value (giant foxtail; [9]) of the same compound?
The value was 40.

And the “Plant response rating, Foxtail, Giant” value (giant foxtail; [10])?
Its value is 10.

What about the “Foxtail, Giant plant response rating (0 to 100 scale, 0 is no effect, 100 is complete control)” value (giant foxtail; Postemergence, 500 g ai/ha) of the same compound?
The value was 50.

What about the “Plant response rating, Foxtail, Giant” value (giant foxtail; [6]) of the same compound?
The value was 80.

And the “Plant response rating, Wheat” value (wheat; [11])?
The value was 0.

And the “Wheat plant response rating (0 to 100 scale, 0 is no effect, 100 is complete control)” value (wheat; 500 g ai/ha)?
Its value is 0.

What about the “Plant response rating, Sedge, Umbrella” value (sedge, umbrella; 250 g ai/ha) of the same compound?
Its value is 0.

What about the “Plant response rating, Sedge, Umbrella” value (sedge, umbrella; 1000 g ai/ha) of the same compound?
Its value is 0.

And the “Plant response rating, Kochia” value (kochia; [9])?
Its value is 0.

What about the “Plant response rating, Kochia” value (kochia; [10]) of the same compound?
The value was 0.

What about the “Kochia plant response rating (0 to 100 scale, 0 is no effect, 100 is complete control)” value (kochia; Postemergence, 500 g ai/ha) of the same compound?
Its value is 20.

What about the “Plant response rating, Kochia” value (kochia; [6]) of the same compound?
The value was 0.

And the “Plant response rating, Blackgrass” value (blackgrass; [11])?
The value was 0.

What about the “Blackgrass plant response rating (0 to 100 scale, 0 is no effect, 100 is complete control)” value (blackgrass; 500 g ai/ha) of the same compound?
The value was 20.

What about the “Plant response rating, Corn” value (corn; [11]) of the same compound?
Its value is 0.

And the “Corn plant response rating (0 to 100 scale, 0 is no effect, 100 is complete control)” value (corn; 500 g ai/ha)?
The value was 20.

What about the “Plant response rating, Galium” value (galium; [11]) of the same compound?
Its value is 50.

And the “Galium plant response rating (0 to 100 scale, 0 is no effect, 100 is complete control)” value (galium; 500 g ai/ha)?
The value was 70.

And the “Plant response rating, Barnyardgrass” value (barnyardgrass [1]; 250 g ai/ha)?
Its value is 0.

And the “Plant response rating, Barnyardgrass” value (barnyardgrass [1]; 1000 g ai/ha)?
Its value is 45.

And the “Plant response rating, Ryegrass, Italian” value (ryegrass, Italian; [9])?
Its value is 0.

What about the “Plant response rating, Ryegrass, Italian” value (ryegrass, Italian; [10]) of the same compound?
Its value is 0.

What about the “Ryegrass, Italian plant response rating (0 to 100 scale, 0 is no effect, 100 is complete control)” value (ryegrass, Italian; Postemergence, 500 g ai/ha) of the same compound?
The value was 0.

And the “Plant response rating, Ryegrass, Italian” value (ryegrass, Italian; [6])?
The value was 0.

And the “Plant response rating, Barnyardgrass” value (barnyardgrass [2]; [9])?
The value was 0.

What about the “Plant response rating, Barnyardgrass” value (barnyardgrass [2]; [10]) of the same compound?
Its value is 10.

What about the “Barnyardgrass plant response rating (0 to 100 scale, 0 is no effect, 100 is complete control)” value (barnyardgrass [2]; Postemergence, 500 g ai/ha) of the same compound?
The value was 20.

What about the “Plant response rating, Barnyardgrass” value (barnyardgrass [2]; [6]) of the same compound?
The value was 60.

What about the “Plant response rating, Ducksalad” value (ducksalad; 250 g ai/ha) of the same compound?
The value was 0.

And the “Plant response rating, Ducksalad” value (ducksalad; 1000 g ai/ha)?
Its value is 50.

And the “Plant response rating, Rice” value (rice; 250 g ai/ha)?
The value was 0.

And the “Plant response rating, Rice” value (rice; 1000 g ai/ha)?
Its value is 0.

What about the “Plant response rating, Pigweed” value (pigweed; [9]) of the same compound?
The value was 0.

What about the “Plant response rating, Pigweed” value (pigweed; [10]) of the same compound?
Its value is 0.

And the “Pigweed plant response rating (0 to 100 scale, 0 is no effect, 100 is complete control)” value (pigweed; Postemergence, 500 g ai/ha)?
Its value is 50.

And the “Plant response rating, Pigweed” value (pigweed; [6])?
Its value is 0.
